Laboratory results reported in patent publication US9511341B2, “Method for preparing acetazolamide sodium powder” (SCI Pharmtech, Inc., priority 2013, dated 2016).

Experiments:
[1] = Impurity D (hydrolysis product) in spray dried powder by USP HPLC method; type: physicochemical; settings: air vs N2 as drying gas, judged by difference of impurity D
Method: In the developed spray drying process, the spray dryer was initiated in the preferred conditions (such as temperature and flow rate of the heated gas, and pneumatic pressure). In the meantime, an acetazolamide sodium solution was prepared by dispersing the acetazolamide powder into water in a flask inerted with N2 and then mixing the acetazolamide suspension with sodium hydroxide solution. After stirring for 15 min, an acetazolamide sodium solution was obtained and pumped into the spray dryer to proceed the drying process. During the drying process, the acetazolamide sodium solution was fed and atomized into mist by a two-fluid nozzle, and then the water was rapidly vaporized and accompanied with the nucleation of acetazolamide sodium particles in the gas flow of drying chamber. The formed particles were immediately carried into the cyclone, in which the separation of gas-solid was performed. The uncollected particles were recovered by the wet scrubber connected to the exit of cyclone. Finally, the acetazolamide sodium powder in the collector was examined by a halogen moisture analyzer and an analytical HPLC method specified in the current USP monograph of acetazolamide for injection.
In Example 2, the amount of impurity D in the acetazolamide free base was about 0.098-0.110 wt %. […]

[2] = cited from earlier work

Row | Oxygen sensitivity during spray drying [1] | Structure (SMILES) | Solubility in water [2]
1 | not oxygen-sensitive | CC(=O)Nc1nnc(S(N)(=O)=O)s1 [acetazolamide sodium powder, Acetazolamide sodium] | easily dissolves in water
2 |  | CC(=O)Nc1nnc(S(N)(=O)=O)s1 [acetazolamide] | extremely low solubility in water
